Results published in patent US8530512B2, “Broad spectrum gram-positive antimicrobials and anthelmintics with efficacy against drug-resistant strains and Mycobacterium species” (priority 2004, dated 2013).
Converted amounts (≈) assume the structure as drawn. Like-named read-outs stand apart in the source and are kept apart here.

Experiments:
[1] = test system: Erysipelothrix rhusiopathiae; assay: MIC assay; type: cell-based; conditions: Table 4
Streptococcus mitis = assay: microbe, parasite or virus in culture; type: cell-based; conditions: Table 4, read-out: MIC
[2] = test system: Corynebacterium pseudodiphthericum; assay: microbe, parasite or virus in culture; type: cell-based; conditions: Corynebacterium pseudodiphtheriticum; Table 4; Corynebacterium pseudodiphthericum; read-out: MIC
[3] = test system: Enterococcus faecium VRE 14; assay: microbe, parasite or virus in culture; type: cell-based
Mycobacterium avium = assay: MIC assay; type: cell-based; conditions: Mycobacterium avium
[4] = test system: methicillin-sensitive S. aureus (MSSA) strains; assay: MIC screening against MSSA strains; type: cell-based; conditions: Table 5, 39 tested
Propionibacterium acnes = assay: MIC assay; type: cell-based; conditions: Cutibacterium acnes, Table 4
[5] = test system: Peptostreptococcus anaerobius; assay: MIC assay; type: cell-based; conditions: Table 4
C. elegans = assay: motility assay; type: in vivo; design: key to Movement score, 1/1600 / Movement score, 1/800 / Movement score, 1/400 / Movement score, 1/200 / Movement score, 1/100: normal (−); slow (+); very slow (++); not motile/paralyzed (+++); conditions: for Movement score, 1/100: dilution 1/100 of stock (10.24 μg/μL; SK-03-92 1.024 μg/μL); for Movement score, 1/100 / Movement score, 1/200 / Movement score, 1/400 / Movement score, 1/800 / Movement score, 1/1600: Ive 1 ng/μL in all wells; for Movement score, 1/200: dilution 1/200 of stock (10.24 μg/μL; SK-03-92 1.024 μg/μL); for Movement score, 1/400: dilution 1/400 of stock (10.24 μg/μL; SK-03-92 1.024 μg/μL); for Movement score, 1/800: dilution 1/800 of stock (10.24 μg/μL; SK-03-92 1.024 μg/μL); for Movement score, 1/1600: dilution 1/1600 of stock (10.24 μg/μL; SK-03-92 1.024 μg/μL), overnight 20° C.
Streptococcus bovis = assay: MIC assay; type: cell-based; conditions: Streptococcus equinus, Table 4
Clostridium difficile = assay: MIC assay; type: cell-based; conditions: Clostridioides difficile, Table 4
[6] = test system: vancomycin-resistant enterococci; assay: microbe, parasite or virus in culture; type: cell-based; conditions: Enterococcus, VRE, read-out: MICs
M. smegmatis = assay: MIC assay; type: cell-based; conditions: for MIC: Mycolicibacterium smegmatis, read-out: MIC M. smegmatis
[7] = test system: Mycobacterium intracellulare; assay: MIC assay; type: cell-based; conditions: Mycobacterium intracellulare
[8] = test system: Gram-positive bacteria tested; assay: organism not typed; type: cell-based
Clostridium novyi A = assay: MIC assay; type: cell-based; conditions: Table 4
Listeria monocytogenes = assay: microbe, parasite or virus in culture; type: cell-based; conditions: Table 4, read-out: MIC
Streptococcus agalactiae = assay: microbe, parasite or virus in culture; type: cell-based; conditions: Table 4, read-out: MIC
[9] = test system: Staphylococcus aureus ATCC 29213; assay: microbe, parasite or virus in culture; type: cell-based; conditions: ATCC29213
Mycobacterium fortuitum = assay: MIC assay; type: cell-based; conditions: Mycolicibacterium fortuitum
[10] = test system: Enterococcus sp., including VRE strains; assay: MIC assay; conditions: read-out: MICs
Corynebacterium xerosis = assay: microbe, parasite or virus in culture; type: cell-based; conditions: Table 4, read-out: MIC
Bacillus cereus = assay: microbe, parasite or virus in culture; type: cell-based; conditions: Bacillus cereus
[11] = test system: Gram-positive bacterial species tested; assay: Minimal Bacterial Concentration Testing (MBC); type: cell-based
Method: Following the MIC, the last three wells showing no bacterial growth were diluted and plated onto BHI agar to do MBC testing.

M. kansasii = assay: MIC assay; type: cell-based; conditions: Mycobacterium kansasii
Mycobacterium bovis BCG = assay: microbe, parasite or virus in culture; type: cell-based; conditions: Mycobacterium tuberculosis variant bovis BCG, Table 4, Mycobacterium bovis BCG
[12] = test system: Staphylococcus aureus MRSA MC-1; assay: microbe, parasite or virus in culture; type: cell-based; conditions: Staphylococcus aureus, MRSA
[13] = test system: S. aureus strains tested, including MRSA; assay: MIC assay
[14] = Safety Testing with Swiss Webster Mice; type: in vivo
Streptococcus pneumoniae = assay: MIC assay; type: cell-based; conditions: Table 4; Streptococcus pneumoniae (source UWL)
[15] = test system: Enterococcus faecalis ATCC 29212; assay: microbe, parasite or virus in culture; type: cell-based; conditions: ATCC29212; Table 4; Enterococcus faecalis ATCC 29212; read-out: MIC
[16] = test system: Staphylococcus aureus MW 2; assay: MIC assay; type: cell-based; conditions: MW2, Table 4
Mycobacterium chelonae = assay: MIC assay; type: cell-based
S. aureus MW2 = assay: murine thigh abscess model of infection; conditions: for CFU/thigh reduced: single intraperitoneal injection
[17] = test system: Enterococcus faecium VRE 1; assay: microbe, parasite or virus in culture; type: cell-based; conditions: Enterococcus faecium, VRE
[18] = test system: community-associated methicillin-resistant S. aureus (CA-MRSA) strains; assay: MIC screening against CA-MRSA strains; type: cell-based
Clostridium tertium = assay: MIC assay; type: cell-based; conditions: Table 4
C. elegans L1 larvae = assay: developmental assay; type: in vivo; design: key to Developmental score, 1/1600 / Developmental score, 1/800 / Developmental score, 1/400 / Developmental score, 1/200 / Developmental score, 1/100: dead (+++); distressed (++); slightly delayed (+); the same as M9-only untreated wells (−); conditions: after four days, Ive 1 ng/μL in each well
[19] = Table 6, read-out: MIC M. avium
[20] = Table 6, read-out: MIC M. intracellulare
[21] = Staphylococcus aureus, Table 6, read-out: MIC S. aureus ATCC 29213
[22] = Table 6, read-out: MIC M. fortuitum
[23] = Table 6, read-out: MIC M. kansasii
[24] = Table 6, read-out: MIC M. chelonae

COc1cc(O)cc(/C=C/c2cc3ccccc3s2)c1 [SK-03-92, (E)-3-(2-(benzo[b]thiophen-2-yl)vinyl)-5-methoxyphenol]
MIC [1]: 8 µg/mL (≈ 28.3 µM)
MIC (Streptococcus mitis): 2 µg/mL (≈ 7.08 µM)
MIC [2]: 2 µg/mL (≈ 7.08 µM)
MIC [3]: 2 µg/mL (≈ 7.08 µM)
MIC (Mycobacterium avium; [19]): 16 µg/mL (≈ 56.7 µM)
MIC (Mycobacterium avium; Table 4, read-out: MIC): 16 µg/mL (≈ 56.7 µM)
MIC range [4]: 1 to 2 µg/mL
MIC (Propionibacterium acnes): 2 µg/mL (≈ 7.08 µM)
MIC [5]: 1 µg/mL (≈ 3.54 µM)
Movement score, 1/100 (C. elegans): +
Movement score, 1/200 (C. elegans): −
Movement score, 1/400 (C. elegans): −
Movement score, 1/800 (C. elegans): −
Movement score, 1/1600 (C. elegans): −
MIC (Streptococcus bovis): 2 µg/mL (≈ 7.08 µM)
MIC (Clostridium difficile): 2 µg/mL (≈ 7.08 µM)
MIC [6]: 2 µg/mL (≈ 7.08 µM)
MIC (M. smegmatis; Table 6): 32 µg/mL (≈ 113 µM)
MIC [7, 20]: 32 µg/mL (≈ 113 µM)
MIC ([7]; Table 4, read-out: MIC): 32 µg/mL (≈ 113 µM)
killing of Gram-positive bacterial species ([8]; all of the Gram-positive bacterial species tested): killed
MIC ([8]; variety of other Gram-positive species): 1 to 8 µg/mL (≈ 3.54 to 28.3 µM)
MIC (Clostridium novyi A): 2 µg/mL (≈ 7.08 µM)
MIC (Listeria monocytogenes): 2 µg/mL (≈ 7.08 µM)
MIC (Streptococcus agalactiae): 2 µg/mL (≈ 7.08 µM)
MIC ([9]; Table 4, Staphylococcus aureus ATCC 29213, read-out: MIC): 2 µg/mL (≈ 7.08 µM)
MIC [9, 21]: 4 µg/mL (≈ 14.2 µM)
MIC (Mycobacterium fortuitum; Table 4, Mycobacterium fortuitum, read-out: MIC): 16 µg/mL (≈ 56.7 µM)
MIC (Mycobacterium fortuitum; [22]): 16 µg/mL (≈ 56.7 µM)
MIC [10]: 2 to 4 µg/mL (≈ 7.08 to 14.2 µM)
MIC (Corynebacterium xerosis): 2 µg/mL (≈ 7.08 µM)
MIC (Bacillus cereus; Table 4, read-out: MIC): 1 µg/mL (≈ 3.54 µM)
MBC analysis [11]: bactericidal
MIC (M. kansasii; Table 4, Mycobacterium kamasii, read-out: MIC): 16 µg/mL (≈ 56.7 µM)
MIC (M. kansasii; [23]): 16 µg/mL (≈ 56.7 µM)
MIC (Mycobacterium bovis BCG): 25 µg/mL (≈ 88.5 µM)
MIC ([12]; read-out: MIC S. aureus MC-1): 2 µg/mL (≈ 7.08 µM)
MIC ([13]; Staphylococcus aureus, MRSA, read-out: MICs): 2 to 4 µg/mL (≈ 7.08 to 14.2 µM)
relative activity against S. aureus ([13]; comparison among analogs of Table 6): best activity
harm to mice ([14]; intraperitoneal injections up to 3 g/kg, preliminary): did not appear to harm the mice
harm to mice ([14]; ~2 g/kg dose intraperitoneally and after a repeated dose): did not harm mice
MIC (Streptococcus pneumoniae): 16 µg/mL (≈ 56.7 µM)
MIC [15]: 4 µg/mL (≈ 14.2 µM)
MIC [16]: 2 µg/mL (≈ 7.08 µM)
MIC (Mycobacterium chelonae; Table 4, Mycobacterium chelonae, read-out: MIC): 32 µg/mL (≈ 113 µM)
MIC (Mycobacterium chelonae; [24]): 32 µg/mL (≈ 113 µM)
CFU/thigh reduced (S. aureus MW2; high dose, preliminary): 3 logs
CFU/thigh reduced (S. aureus MW2; low dose, preliminary): 2.5 logs
in vivo efficacy (S. aureus MW2; thigh abscess model): in vivo efficacy
drop in the bacterial counts (S. aureus MW2; two days after drug injection, preliminary): 2-3 log
MIC [17]: 2 µg/mL (≈ 7.08 µM)
MIC ([18]; Staphylococcus aureus, many MRSA strains): 2 to 4 µg/mL (≈ 7.08 to 14.2 µM)
MIC range ([18]; Table 5, CA-MRSA, 43 tested): 2 to 4 µg/mL
MIC (Clostridium tertium): 1 µg/mL (≈ 3.54 µM)

COc1cc(O)cc(/C=C/Oc2ccc3ccccc3c2)c1 [SK-04-23]
MIC (Mycobacterium avium; [19]): 64 µg/mL (≈ 219 µM)
Movement score, 1/100 (C. elegans): ++
Movement score, 1/200 (C. elegans): ++
Movement score, 1/400 (C. elegans): ++
Movement score, 1/800 (C. elegans): ++
Movement score, 1/1600 (C. elegans): +
effect on worms at the lowest concentrations tested (C. elegans; lowest concentrations tested, at least triplicate): reduced motility, paralysis, or death
MIC (M. smegmatis; per-compound listing, Example 6): 128 µg/mL (≈ 438 µM)
MIC M. smegmatis (M. smegmatis; Table 6): 128 µg/mL (≈ 438 µM)
MIC [7, 20]: 64 µg/mL (≈ 219 µM)
MIC [9, 21]: 8 µg/mL (≈ 27.4 µM)
MIC ([9]; Staphylococcus aureus, per-compound listing, Example 6, read-out: MIC S. aureus): 16 µg/mL (≈ 54.7 µM)
MIC (Mycobacterium fortuitum; [22]): 128 µg/mL (≈ 438 µM)
MIC (Bacillus cereus; per-compound listing, Example 6, read-out: MIC B. cereus): 8 µg/mL (≈ 27.4 µM)
MIC (M. kansasii; [23]): 64 µg/mL (≈ 219 µM)
MIC ([12]; read-out: MIC MRSA): 8 µg/mL (≈ 27.4 µM)
MIC ([12]; read-out: MIC S. aureus MC-1): 8 µg/mL (≈ 27.4 µM)
MIC (Mycobacterium chelonae; [24]): 128 µg/mL (≈ 438 µM)
Developmental score, 1/100 (C. elegans L1 larvae; dilution 1/100): +++
Developmental score, 1/200 (C. elegans L1 larvae; dilution 1/200): +++
Developmental score, 1/400 (C. elegans L1 larvae; dilution 1/400): +
Developmental score, 1/800 (C. elegans L1 larvae; dilution 1/800): −
Developmental score, 1/1600 (C. elegans L1 larvae; dilution 1/1600): −
